Columns and labels:
[1] = tested on: colon cancer (HT-29) cell line; test: Antiproliferative MTT assay, HT-29; type: cell-based; settings: Homo sapiens, HT-29 colon cancer cells, read-out: Antiproliferative activity IC50 ± SEM HT-29
[2] = tested on: four human cancer cell lines (HT-29, Panc-1, A-549, MCF-7); test: Average antiproliferative activity (GI50) over four cancer cell lines; type: cell-based; settings: average IC50 against the four cancer cell lines
Experimental: (§1) 4.2.1.2. Assay for antiproliferative effect
(§2) To explore the antiproliferative potential of compounds MTT assay was performed according to previously reported procedure using different cell lines to explore the antiproliferative potential of […]
(§3) calculate the total nuclear DNA, a fluorescent dye (propidium iodide, PI) is used which can attach to the DNA, thus offering a quick and precise technique. PI cannot pass through the cell membrane and its signal intensity can be considered as directly proportional to quantity of cellular DNA.
(§4) Cells whose cell membranes are damaged or have changed permeability are counted as dead ones.
(§5) The assay was performed by seeding the cells of different cell lines at a density of 3000-7500 cells/well (in 200µl medium) in culture plates followed by incubation for 24h at 37 °C in humidified 5% CO2/95% air atmospheric conditions. The medium was removed; the compounds were added to the plates at 10 µM concentrations (in 0.1% DMSO) in triplicates, followed by incubation for 48 h. DMSO (0.1%) was used as control. After incubation, medium was removed […]
(§6) 80 °C, the plates were allowed to freeze for 24 h, followed by thawing at 25 °C. […]
(§7) (Polar-Star BMG Tech) was used to record the readings at excitation and emission wavelengths of 530 and 620 nm for each well. The percentage cytotoxicity of compounds was calculated using […]
(§8) Where ATC= Absorbance of treated cells and AC= Absorbance of control. Erlotinib was used as positive control in the assay.

[3] = tested on: lung cancer (A-549) cell line; test: Antiproliferative MTT assay, A-549; type: cell-based; settings: Homo sapiens, A549, A-549 lung cancer cells, read-out: Antiproliferative activity IC50 ± SEM A-549
Experimental: as §1, §2, §3, §4, §5, §6, §7, §8

[4] = tested on: pancreatic cancer (Panc-1) cell line; test: Antiproliferative MTT assay, Panc-1; type: cell-based; settings: Homo sapiens, Panc-1 pancreatic cancer cells, read-out: Antiproliferative activity IC50 ± SEM Panc-1
Experimental: as §1, §2, §3, §4, §5, §6, §7, §8

EGFR [5] = molecular target: T1, EGFR (Homo sapiens, UniProt P00533); test: EGFR-TK inhibitory assay; type: biochemical; settings: read-out: EGFR inhibition IC50 ± SEM
T1 construct: amino acids 645–1186; His6 (N); made in house; host or cells: Sf-9 insect cells (baculovirus; pBlueBacHis2B / pFASTBacHTc)
Experimental: 4.2.1.3. EGFR inhibitory assay
Sf-9 cells were infected for 72h for protein expression. […]
centrifugation for 20 min.
Histidine-linked proteins were first eluted with 250 and then […]
using wash buffer. Europium-tagged antiphosphotyrosine antibody (75 µL, 400 ng) was added to each well followed by incubation of 1h and then washing of the plates using buffer. The enhancement solution was added to each well and the signal was recorded at excitation and […]
The autophosphorylation percentage inhibition by compounds was calculated using the following equation: […]
(1 picture or pasted object on this page, not shown here)

[6] = tested on: breast cancer (MCF-7) cell line; test: Antiproliferative MTT assay, MCF-7; type: cell-based; settings: Homo sapiens, MCF7, MCF-7 breast cancer cells, read-out: Antiproliferative activity IC50 ± SEM MCF-7
Experimental: as §1, §2, §3, §4, §5, §6, §7, §8

[7] = Cell viability, MTT test on normal cell line; type: cell-based; settings: human, MCF-10A mammary gland epithelial cells (normal cell line), MCF-10A normal cells, 4 days incubation
Experimental: The human mammary gland epithelial (MCF-10A) normal cell line was used to test the viability of novel compounds 9a-o ([Mahmoud et al., 2022]; [Mekheimer et al., 2022]). After 4 days of incubation on MCF-10A cells, the cell viability of compounds 9a-o was determined using the MTT test.
The human mammary gland epithelial (MCF-10A) normal cell line was used to test the viability of compounds 9a-o ([Mahmoud et al., 2022]; [Mekheimer et al., 2022]). Refer to Supplementary Appendix A (Supplementary Material) for more details.
4.2. Biological evaluation
4.2.1. Cytotoxic activity using MTT Assay and evaluation of IC50
MTT assay was carried out to study the effect of compounds on mammary epithelial cells (MCF-10A). The medium in which cells were propagated contained Dulbecco's modified Eagle's medium (DMEM)/ Ham's F-12 medium (1:1) supplemented with epidermal growth factor (20 ng/mL), hydrocortisone (500 ng/mL), insulin (10 μg/mL), 2 mM glutamine and 10% foetal calf serum.
After every 2-3 days, the cells were passaged using trypsin ethylenediamine tetra acetic acid (EDTA). The cells were seeded at a density of 10^4 cells mL-1 in flat-bottomed culture plates containing 96 wells each. After 24 h, medium was removed from the plates and the compounds in (in 0.1% DMSO) were added (in 200 μL medium to yield a final concentration of 0.1% v/v) to the wells of plates. A single compound was designated with four wells followed by incubation of plates for 96h at 37°C. After incubation, medium was removed completely from the plates followed by addition of MTT (0.4 mg/mL in medium) to each well and subsequent incubation of plates for 3h. MTT (along with the medium) was removed and DMSO (150μL) was added to each well of the culture plates, followed by vertexing and subsequent measurement of absorbance (at 540 nm) using microplate reader. The data are shown as percentage inhibition of proliferation in comparison with controls containing 0.1% DMSO.

BRAF^V600E [8] = molecular target: T2, BRAF^V600E (Homo sapiens, UniProt P15056, V600E); test: BRAF^V600E kinase inhibitory assay; type: biochemical, Mouse; settings: read-out: BRAF^V600E inhibition IC50 ± SEM
T2 construct: Mouse full-length GST-tagged BRAFV600E; GST; purchased Invitrogen PV3849
Experimental: Refer to Supplementary Appendix A for more details. […]
4.2.1.4. BRAF kinase assay […]
against BRAF. Mouse full-length GST-tagged BRAFV600E (7.5 ng, Invitrogen, PV3849) was pre-incubated with drug (1 µL) and assay dilution buffer (4 µL) for 60 min at 25 °C. In assay dilution buffer, a solution (5 µL) containing MgCl2 (30 mM), ATP (200 µM), recombinant human full length (200 ng) […] N-terminal His-tagged MEK1 (Invitrogen) was added to start the assay, subsequent to incubation for 25 min at 25 °C. The assay was stopped using 5X protein denaturing buffer (LDS) solution (5 µL). To further denature the protein, heat (70° C) was applied for 5 min.
10 µL of each reaction was loaded into the precast plates and electrophoresis was allowed to proceed. After completion of electrophoresis, the front part of the precast gel plate (holding hot ATP) was cut and afterwards cast-off. The dried gel was developed using a phosphor screen. A […]
served as positive control. […]
(FITC) and propidium iodide (PI) staining kit (BD Pharmingen, San Diego, USA). […]
4.3. Statistical analysis
Computerized Prism 5 program was used to statistically analyzed data using one-way ANOVA test followed by Tukey’s as post ANOVA for multiple comparison at P ≤.05. Data were presented

EGFR^T790M = EGFR^T790M (Homo sapiens, UniProt P00533, T790M); test: EGFR^T790M inhibitory assay (HTRF KinEASE-TK)
[9] = tested on: various cancer cell lines; parameters: method as in Hisham et al., 2022; Hisham et al., 2023; settings: ref Hisham et al., 2022, 2023; cited from earlier work
BRAF^V600E [10] = tested on: BRAF^V600E; parameters: method as in Hisham et al., 2022; Hisham et al., 2023; settings: ref Hisham et al., 2022, 2023, read-out: IC50 against BRAF^V600E; cited from earlier work
EGFR [11] = molecular target: T1, EGFR; parameters: method as in Okaniwa et al., 2012; Zhang et al., 2013; settings: ref Okaniwa et al., 2012; Zhang et al., 2013; cited from earlier work
wild-type BRAF = tested on: wild-type BRAF; parameters: method as in Okaniwa et al., 2012; Zhang et al., 2013; settings: ref Okaniwa et al., 2012; Zhang et al., 2013; cited from earlier work

T1 sequence (P00533 669-1210): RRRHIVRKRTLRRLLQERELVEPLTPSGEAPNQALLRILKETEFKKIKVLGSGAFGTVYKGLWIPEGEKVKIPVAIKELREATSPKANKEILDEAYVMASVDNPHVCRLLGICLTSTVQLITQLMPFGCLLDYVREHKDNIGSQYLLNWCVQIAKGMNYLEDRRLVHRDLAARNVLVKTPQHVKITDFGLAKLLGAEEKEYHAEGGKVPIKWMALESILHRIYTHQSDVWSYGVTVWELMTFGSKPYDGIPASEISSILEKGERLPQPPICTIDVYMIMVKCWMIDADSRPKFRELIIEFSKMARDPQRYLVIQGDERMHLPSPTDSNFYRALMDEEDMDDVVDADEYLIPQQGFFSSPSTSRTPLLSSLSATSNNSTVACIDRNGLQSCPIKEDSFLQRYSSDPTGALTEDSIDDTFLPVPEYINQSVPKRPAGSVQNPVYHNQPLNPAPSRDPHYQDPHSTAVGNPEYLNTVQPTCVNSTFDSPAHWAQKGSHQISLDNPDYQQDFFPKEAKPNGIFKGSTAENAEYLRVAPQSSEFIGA
T2 sequence (P15056 2-766 V600E limits assumed): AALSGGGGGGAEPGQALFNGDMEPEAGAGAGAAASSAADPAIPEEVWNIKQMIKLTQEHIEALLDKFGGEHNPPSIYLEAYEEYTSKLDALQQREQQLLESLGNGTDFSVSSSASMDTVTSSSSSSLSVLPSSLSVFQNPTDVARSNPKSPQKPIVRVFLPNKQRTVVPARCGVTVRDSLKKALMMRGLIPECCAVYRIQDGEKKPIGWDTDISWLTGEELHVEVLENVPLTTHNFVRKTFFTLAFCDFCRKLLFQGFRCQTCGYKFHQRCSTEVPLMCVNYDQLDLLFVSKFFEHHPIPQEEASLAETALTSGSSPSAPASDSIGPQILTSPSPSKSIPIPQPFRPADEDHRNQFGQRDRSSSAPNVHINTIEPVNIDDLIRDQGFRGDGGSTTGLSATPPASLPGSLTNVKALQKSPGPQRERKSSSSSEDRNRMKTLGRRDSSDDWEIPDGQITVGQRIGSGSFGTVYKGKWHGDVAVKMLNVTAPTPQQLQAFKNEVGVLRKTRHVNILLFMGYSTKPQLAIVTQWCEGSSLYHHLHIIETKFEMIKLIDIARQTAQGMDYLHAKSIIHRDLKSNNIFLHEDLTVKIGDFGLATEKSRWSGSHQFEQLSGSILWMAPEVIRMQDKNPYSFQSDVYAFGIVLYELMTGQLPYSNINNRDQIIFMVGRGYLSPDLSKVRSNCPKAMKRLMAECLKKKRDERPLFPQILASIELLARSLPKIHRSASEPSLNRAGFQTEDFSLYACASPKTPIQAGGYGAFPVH
EGFR^T790M, sequence (P00533 25-1210 T790M): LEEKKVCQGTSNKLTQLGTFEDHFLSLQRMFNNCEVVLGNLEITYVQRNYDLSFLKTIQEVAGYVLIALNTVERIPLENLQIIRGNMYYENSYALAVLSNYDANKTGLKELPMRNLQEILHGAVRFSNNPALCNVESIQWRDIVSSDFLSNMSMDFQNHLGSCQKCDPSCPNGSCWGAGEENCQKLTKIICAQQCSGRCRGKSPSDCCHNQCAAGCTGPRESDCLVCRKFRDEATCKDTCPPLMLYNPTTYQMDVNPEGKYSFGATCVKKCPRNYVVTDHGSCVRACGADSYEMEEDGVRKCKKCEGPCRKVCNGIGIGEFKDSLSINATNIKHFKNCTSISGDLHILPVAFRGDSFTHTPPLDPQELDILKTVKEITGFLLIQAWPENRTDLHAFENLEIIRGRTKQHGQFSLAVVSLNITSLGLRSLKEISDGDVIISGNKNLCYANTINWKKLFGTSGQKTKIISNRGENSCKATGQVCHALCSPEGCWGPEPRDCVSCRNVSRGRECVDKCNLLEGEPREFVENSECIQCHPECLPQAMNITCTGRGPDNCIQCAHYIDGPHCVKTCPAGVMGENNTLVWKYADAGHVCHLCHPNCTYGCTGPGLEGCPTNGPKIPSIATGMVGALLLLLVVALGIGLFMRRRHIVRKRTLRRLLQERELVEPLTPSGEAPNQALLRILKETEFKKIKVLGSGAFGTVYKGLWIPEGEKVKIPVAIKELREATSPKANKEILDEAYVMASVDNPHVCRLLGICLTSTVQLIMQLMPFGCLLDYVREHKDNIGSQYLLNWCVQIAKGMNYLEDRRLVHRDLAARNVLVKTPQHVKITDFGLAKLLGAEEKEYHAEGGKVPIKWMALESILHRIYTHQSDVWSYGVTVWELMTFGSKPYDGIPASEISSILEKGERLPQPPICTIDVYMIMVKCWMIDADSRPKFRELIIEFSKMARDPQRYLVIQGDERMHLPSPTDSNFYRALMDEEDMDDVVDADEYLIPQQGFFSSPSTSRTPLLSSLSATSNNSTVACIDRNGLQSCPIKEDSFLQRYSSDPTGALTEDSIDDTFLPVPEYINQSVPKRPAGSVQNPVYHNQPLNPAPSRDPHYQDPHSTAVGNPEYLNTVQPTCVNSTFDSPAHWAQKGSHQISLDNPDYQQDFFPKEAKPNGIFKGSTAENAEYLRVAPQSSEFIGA

Row | IC50 [1] | GI50 [2] | IC50 [3] | IC50 [4] | melting point | IC50 (EGFR [5]) | IC50 [6] | IC50 (BRAF^V600E [8]) | IC50 (EGFR^T790M) | SMILES | viability at 96 h, 50 µM [7] | GI50 [9] | IC50 (BRAF^V600E [10]) | IC50 against EGFR (EGFR [11]) | IC50 against wild-type BRAF (wild-type BRAF)
1 | 25 ± 2 nM | 26 nM | 24 ± 2 nM | 26 ± 2 nM | 186 to 188 °C | 64 ± 5 nM | 28 ± 3 nM | 51 ± 5 nM | 11 ± 2 nM | COc1ccc(-c2noc(CSc3nc4ccccc4c(=O)n3-c3ccccc3)n2)cc1 [Compound 9c, 2-((3-(4-Methoxyphenyl)-1,2,4-oxadiazol-5-yl)methylthio)-3-phenylquinazolin-4(3H)-one] | 91% | – | – | – | –
2 | 30 ± 3 nM | 30 nM | 28 ± 2 nM | 29 ± 2 nM | 178 to 180 °C | 72 ± 5 nM | 31 ± 3 nM | 57 ± 5 nM | 15 ± 2 nM | Cc1cccc(-n2c(SCc3nc(-c4ccc(Cl)cc4)no3)nc3ccccc3c2=O)c1 [Compound 9h, 2-((3-(4-Chlorophenyl)-1,2,4-oxadiazol-5-yl)methylthio)-3-m-tolylquinazolin-4(3H)-one] | 89% | – | – | – | –
3 | – | – | – | – | – | – | – | – | – | COc1cccc2c1C(=O)c1c(O)c3c(c(O)c1C2=O)C[C@@](O)(C(=O)CO)C[C@@H]3O[C@H]1C[C@H](N)[C@H](O)[C@H](C)O1 [Doxorubicin] | – | 1140 nM | – | – | –
4 | – | – | – | – | – | – | – | – | – | C=CCn1c(SCC(=O)Nc2cccc(C(=O)/C=C/c3ccc(OC)cc3)c2)nc2ccccc2c1=O [IX] | – | 1160 nM | 650 nM | – | –
5 | – | – | – | – | – | – | – | – | – | COc1cc2ncnc(Nc3cccc(NC(=O)Nc4ccc(Cl)c(C(F)(F)F)c4)c3)c2cc1OCCCN1CCOCC1 [I] | – | – | – | nanomolar range | nanomolar range

— publication PMC11393688, “Design and synthesis of new 1,2,4-oxadiazole/quinazoline-4-one hybrids with antiproliferative activity as multitargeted inhibitors” (Frontiers in Chemistry, 2024)
